Assay results: paper PMC3989888 (Virology, 2014)
Where two headings read alike, the source gives them in different places.

Experiments:
[1] = test system: CD4 T cells (PBMC); assay type: cell-based, human (HLA-DR1 children)
[2] = test system: CD4 T cells (PBMC); assay: Ex vivo class II tetramer staining and phenotyping of PBMC from adults; assay type: cell-based, human (DRB1*0101 healthy adults); details: for #Tet+/6.0×10^5 CD4+ T cells: ex vivo fresh PBMC, tetramer of the peptide; for % α4β7(+) CCR9(+) / % α4β7(+) CCR9(−) / % α4β7(−) CCR9(+) / % α4β7(−) CCR9(−): of antigen experienced tetramer+ CD4 T cells; for % Antigen experienced T cells: tetramer+ CD4 T cells, CD62L−CD45RA+/− and CD62L+CD45RA−

RVEYHFLSPYVSRKESP [TRF]
Tetramer+ cells with phenotype of antigen-experienced cells ([1]; both groups of children (vaccinated and placebo), data not shown): 0–30%
Frequency of tetramer stained antigen experienced CD4 T cells ([1]; placebo recipient children (n = 3)): <0.0001–0.003%
Frequency of tetramer stained antigen experienced CD4 T cells ([1]; vaccinated children (n = 3), two weeks after second dose of RIX4414): <0.0001–0.01%
#Tet+/6.0×10^5 CD4+ T cells ([2]; HA-02): 8 /6.0×10^5 CD4^+ T cells
% α4β7(+) CCR9(+) ([2]; HA-02): 33.3%
% α4β7(+) CCR9(−) ([2]; HA-02): 33.3%
% α4β7(−) CCR9(+) ([2]; HA-02): 0%
% α4β7(−) CCR9(−) ([2]; HA-02): 33.3%
% Antigen experienced T cells ([2]; HA-02): 54.5%
#Tet+/6.0×10^5 CD4+ T cells ([2]; HA-15): 4 /6.0×10^5 CD4^+ T cells
% Antigen experienced T cells ([2]; HA-15): 0%
#Tet+/6.0×10^5 CD4+ T cells ([2]; HA-19): 10 /6.0×10^5 CD4^+ T cells
% α4β7(+) CCR9(+) ([2]; HA-19): 33.3%
% α4β7(+) CCR9(−) ([2]; HA-19): 8.33%
% α4β7(−) CCR9(+) ([2]; HA-19): 25%
% α4β7(−) CCR9(−) ([2]; HA-19): 33.3%
% Antigen experienced T cells ([2]; HA-19): 85.7%
#Tet+/6.0×10^5 CD4+ T cells ([2]; HA-23): 8 /6.0×10^5 CD4^+ T cells
% α4β7(+) CCR9(+) ([2]; HA-23): 25%
% α4β7(+) CCR9(−) ([2]; HA-23): 25%
% α4β7(−) CCR9(+) ([2]; HA-23): 0%
% α4β7(−) CCR9(−) ([2]; HA-23): 50%
% Antigen experienced T cells ([2]; HA-23): 57.1%
#Tet+/6.0×10^5 CD4+ T cells ([2]; HA-29): 14 /6.0×10^5 CD4^+ T cells
% α4β7(+) CCR9(+) ([2]; HA-29): 50%
% α4β7(+) CCR9(−) ([2]; HA-29): 0%
% α4β7(−) CCR9(+) ([2]; HA-29): 0%
% α4β7(−) CCR9(−) ([2]; HA-29): 50%
% Antigen experienced T cells ([2]; HA-29): 50%
#Tet+/6.0×10^5 CD4+ T cells ([2]; HA-41): 3 /6.0×10^5 CD4^+ T cells
% α4β7(+) CCR9(+) ([2]; HA-41): 0%
% α4β7(+) CCR9(−) ([2]; HA-41): 33.3%
% α4β7(−) CCR9(+) ([2]; HA-41): 0%
% α4β7(−) CCR9(−) ([2]; HA-41): 66.7%
% Antigen experienced T cells ([2]; HA-41): 100%
#Tet+/6.0×10^5 CD4+ T cells ([2]; HA-51): 98 /6.0×10^5 CD4^+ T cells
% α4β7(+) CCR9(+) ([2]; HA-51): 20.7%
% α4β7(+) CCR9(−) ([2]; HA-51): 44.8%
% α4β7(−) CCR9(+) ([2]; HA-51): 6.9%
% α4β7(−) CCR9(−) ([2]; HA-51): 27.6%
% Antigen experienced T cells ([2]; HA-51): 36.7%
#Tet+/6.0×10^5 CD4+ T cells ([2]; HA-52): 72 /6.0×10^5 CD4^+ T cells
% α4β7(+) CCR9(+) ([2]; HA-52): 0%
% α4β7(+) CCR9(−) ([2]; HA-52): 66.7%
% α4β7(−) CCR9(+) ([2]; HA-52): 0%
% α4β7(−) CCR9(−) ([2]; HA-52): 33.3%
% Antigen experienced T cells ([2]; HA-52): 27.3%
